Reference: ChEMBL document CHEMBL1128963, “A non-peptide ligand for the somatostatin receptor having a benzodiazepinone structure” (Bioorg Med Chem Lett, 1996)

molecular target: Somatostatin receptor; test: Compound was tested for its inhibitory effect against somatostatin receptor in rat cortex membrane using [125I]Tyr3-octreotide as the radioligand; format: cell membranes

Structure (SMILES)	IC50	Log Ki
NCCCCCN1C(=O)C(Cc2c[nH]c3ccccc23)N(C(=O)c2ccccc2)Cc2ccccc21 (single isomer, unassigned; (-))	6.5 µM	-5.2
NCCCCCN1C(=O)C(Cc2c[nH]c3ccccc23)N(C(=O)c2ccccc2)Cc2ccccc21 (stereo in doubt; 2)	7 µM	-5.1
NCCCCCN1C(=O)C(Cc2c[nH]c3ccccc23)N(C(=O)c2ccccc2)Cc2ccccc21 (stereo in doubt; (+)2)	8.2 µM	–
C[C@H](N)C(=O)NCC(=O)N[C@@H]1CSSC[C@@H](C(=O)O)NC(=O)[C@H](CO)NC(=O)[C@@H]([C@@H](C)O)NC(=O)[C@H](Cc2ccccc2)NC(=O)[C@@H]([C@@H](C)O)NC(=O)[C@H](CCCCN)NC(=O)[C@H](Cc2c[nH]c3ccccc23)NC(=O)[C@H](Cc2ccccc2)NC(=O)[C@@H](Cc2ccccc2)NC(=O)[C@H](CC(N)=O)NC(=O)[C@@H](CCCCN)NC1=O [SOMATOSTATIN RECEPTOR LIGAND]	0.00043 µM	–
